Results reported in patent US20240239849A1, “PEPTIDE ENTITIES WITH ANTIMICROBIAL ACTIVITY AGAINST MULTI-DRUG RESISTANT PATHOGENS” (CENTRO DE INVESTIGACIÓN Y DESARROLLO DE MEDICAMENTOS. CIDEM, priority 2020, published 2024).

What was measured:
[1] = system: K. pneumoniae (multi-resistant clinical isolate); experiment: checkerboard test, Meropenem/peptide combinations; type: cell-based, Klebsiella pneumoniae; settings: meropenem alone, denominator of FICA
Description: (§1) Only strains from clinical isolates of Gram-negative bacteria Klebsiella pneumoniae and Gram-positive Staphylococcus aureus multiresistant to antibiotics were chosen to carry out the combination tests between the peptides. The experiments were carried out according to the methodology of the test described as “checkerboard” or checkerboard [Huang, R.-y., et al., Isobologram Analysis: A Comprehensive Review of Methodology and Current Research. Frontiers in Pharmacology, 2019. 10: p. 1222] This test allows the determination of the fractional inhibitory concentration index (FICI) following Equation 3, which establishes the classification of the effects obtained as follows: synergy (FICI≤0.5), additive (0.5<FICI≤ 1), indifferent (1<FICI≤2) and antagonism (FICI>2).
(§2) Where: MICA: minimum inhibitory concentration of compound A; MICB: minimum inhibitory concentration of compound B; MICAB: minimum concentration of A that combined with B inhibits growth; MICBA: minimum concentration of B that combined with A inhibits growth. The checkerboard experiment was performed in sterile 96-well polypropylene plates (Eppendorf, Germany). Isolated colonies of each bacterium were used to create 1×10^5 CFU bacterial cultures in PBS, referred to as a working culture. In addition, 64 μM stock solutions of the peptides were prepared in PBS. Two-fold dilutions in PBS of each peptide were made in 50 μL final volume. […]

[2] = system: S. aureus (multi-resistant clinical isolate); experiment: checkerboard test, Meropenem/peptide combinations; type: cell-based, Staphylococcus aureus; settings: meropenem alone, denominator of FICA
Description: as §1, §2

C[C@@H](O)[C@H]1C(=O)N2C(C(=O)O)=C(S[C@@H]3CN[C@H](C(=O)N(C)C)C3)[C@H](C)[C@H]12 [MER, Meropenem, reference compound]
MICA (minimum inhibitory concentration of compound A) [1]: 8.0 µg/mL
MICA (minimum inhibitory concentration of compound A) [2]: 8.0 µg/mL
